{"source": "patent US20060193925A1", "about": "“Side effect-relieving agents and/or hypoglycemic effect enhancers for thiazolidine compounds” (KANEBO, LIMITED, priority 2001, published 2006)", "type_in_all_cases": "in vivo", "key": {"[1]": {"test": "Test Example 1: body weight gain inhibiting effect", "conditions": "KKA^y mice, 8/group, in powder diet, pioglitazone 5 mg/kg/day, extract powder of Preparation Example 1 1.5 g/kg/day", "from_the_text": "(§1) Divided into groups of 8 mice, 7-week old KKA^y mice which were genetically obese diabetic animals were used. Group (a) was fed only on a powder diet (CE-2, produced by Clea Japan, Inc.) for 5 weeks, and Group (b), Group (c) and Group (d) were given pioglitazone, the extract powder of Preparation Example 1, and pioglitazone and the extract powder of Preparation Example 1, respectively, for 5 weeks by preparing a powder diet so that the daily dose of each therein was of the values shown in Table 1. During the period of the test, body weights were measured, and the formulation of the diet were adjusted in accordance with an increase or decrease in body weight to keep the doses per day in Group (b) and Group (d) constant.\nThe results were evaluated by comparing the body weight gain observed in each of Groups (a), (b), (c) and (d) (Student's t-test)."}, "[2]": {"test_system": "KKA^y mice", "test": "Test Example 2: hypoglycemic effect (blood glucose level in serum)", "conditions": "in powder diet, pioglitazone 5 mg/kg/day, extract powder of Preparation Example 1 1.5 g/kg/day", "from_the_text": "as §1\nTests were carried out in the same manner as in Test Example 1. The blood was collected 1 week and 5 weeks after commencement of the administration, and the serum was separated to measure the blood glucose levels."}, "[3]": {"test": "Test Example 3: body weight gain inhibiting effect", "conditions": "KKA^y mice, 7/group, in powder diet, pioglitazone 5 mg/kg/day, extract powder of Preparation Example 2 6.4 g/kg/day", "procedure": "(§2) Divided into groups of 7 mice, 7-week old KKA^y mice which were genetically obese diabetic animals were used, and the tests were carried out in the same manner as in Test Example 1, except Group (c) and (d) were given the extract powder of Preparation Example 2, and pioglitazone and the extract powder of Preparation Example 2, respectively, for 4 weeks by preparing the powder diet so that the daily dose each therein was of the values shown in Table 4.\nThe results were evaluated in the same manner as in Test Example 1."}, "[4]": {"test_system": "KKA^y mice", "test": "Test Example 4: hypoglycemic effect (blood glucose level in serum)", "conditions": "in powder diet, pioglitazone 5 mg/kg/day, extract powder of Preparation Example 2 6.4 g/kg/day", "procedure": "as §2\nThe test was carried out in the same manner as in Test Example 3. The blood was collected 1 week and 4 weeks after commencement of the administration, and the serum was separated to measure the blood glucose levels.\nThe results were evaluated in the same manner as in Test Example 2."}}, "note": "Where a name gives a salt, the structure may show the parent alone."}
{"compound": "CCc1ccc(CCOc2ccc(CC3SC(=O)NC3=O)cc2)nc1", "note": "(centres unmarked) [Pioglitazone, pioglitazone hydrochloride]", "values": [{"measurement": "Body weight gain, 1 week after administration", "setting": "[1]; 1 week", "result": "5.2 ± 0.2", "unit": "g"}, {"measurement": "Body weight gain, 5 weeks after administration", "setting": "[1]; 5 weeks", "result": "11.8 ± 0.6", "unit": "g"}, {"measurement": "Blood glucose level, 1 week after the administration", "setting": "[2]; 1 week", "result": "404 ± 28", "unit": "mg/dL"}, {"measurement": "Blood glucose level, 5 weeks after the administration", "setting": "[2]; 5 weeks", "result": "527 ± 18", "unit": "NS mg/dl"}, {"measurement": "Body weight gain, 1 week after administration", "setting": "[3]; 1 week", "result": "5.3 ± 0.4", "unit": "g"}, {"measurement": "Body weight gain, 4 weeks after administration", "setting": "[3]; 4 weeks", "result": "10.7 ± 0.5", "unit": "g"}, {"measurement": "Blood glucose level, 1 week after the administration", "setting": "[4]; 1 week", "result": "320 ± 30", "unit": "mg/dL"}, {"measurement": "Blood glucose level, 4 weeks after the administration", "setting": "[4]; 4 weeks", "result": "587 ± 24", "unit": "NS mg/dl"}]}
